Test results published in paper PMC9258321, “Structure-guided design of CPPC-paired disulfide-rich peptide libraries for ligand and drug discovery” (Chemical Science, 2022).
Bridge positions count the residues as written; N and C are the ends. Peptide text beside a SMILES is read from it. * marks the point of attachment. FITC = O=C1OC2(c3ccc(O)cc3Oc3cc(O)ccc32)c2ccc(NC(=S)*)cc21; βAla = NCCC(=O)O

Key:
[1] = tested on: CD28 expressed on the surface of HEK293T cells; assay: Laser confocal cell imaging, labeling CD28 on HEK293T cells; type: cell-based; settings: HEK293T cells transfected with mCherry-CD28 vs mCherry control; 1 μM peptide in DMEM, 30 min, washed; confocal colocalization
Procedure: Finally, we examined the specific binding capability of drp8 to CD28 expressed on the surface of the cells. HEK293T cells transfected with a plasmid expressing the extracellular domain of CD28 fused with an extracellular-targeting signaling sequence, a fluorescent mCherry tag, and a transmembrane domain was constructed for the experiments. Briefly, the transfected cells were incubated with the fluorescein-labeled drp8 for 30 min, followed by washing with culture media to remove the unbound peptide. Confocal fluorescence images were then recorded (Fig. 5d), showing the colocalization of fluorescence from the mCherry tag and the labeled peptide.
Surface plasmon resonance (SPR) assay
The affinity of peptides to Keap1 was measured using Biacore T200 (GE healthcare) at 25℃. […]
NMR samples were dissolved in 80% perdeuterated acetonitrile and 20% H2O for drp1, 75% perdeu-terated acetonitrile and […] for drp2-a, 60% perdeuterated acetonitrile and 40% H2O for drp8, 50% perdeuterated acetonitrile and 50% H2O for drp3 and drp6, 40% perdeuterated acetonitrile and 60% H2O for drp2-b and drp4 (The solution conditions depend on the dispersion of cross -peaks). […] Two dimensional (2D) 1H, 15N/13C HSQC spectra were recorded to obtain chemical shifts of heavy atoms in backbone and side-chains. […]

[2] = target: T1, CD28 (Homo sapiens, UniProt P10747); assay: FP assay: CD80 added to premixed oxidized FITC-drp8 and CD28; type: binding; settings: CD80 50-500 nM added to 25 nM oxidized FITC-drp8 and 100 nM CD28, PBS pH 7.4, 20 min room temperature, Fig. S22
T1 construct: purchased Sino Biological 11524-HCCH
Procedure: (§1) min incubation at room temperature, the fluorescence anisotropies were measured using a plate reader (Eex= 485 nm, Eem=535 nm). All of the measurements were recorded in triplicate. In the fluorescence polarization assay s measuring the binding of reduced FITC-drp8 to CD28 and the binding of oxidized FITC-drp8 to CTLA-4, the fluorescence anisotrop ies were recorded in the same way as described above.
(§2) Dissociation constants ( KD) were determined by nonlinear regression analysis of anisotrop ies versus the concentrations of the protein using the following equation: […]
(§3) Y = A1 + (A2 − A1) × { 2×C } (1)
(§4) X: the concentration of protein, Y: the measured fluorescence anisotropy, C: the concentration of fluores-cent peptide, A1: the bottom plateaus of anisotropy, A2: the anisotropy signal in the presence of saturating concentrations of CD28, KD: the dissociation constant.
(§5) (b) Competition fluorescence polarization assay. The binding of drp8 to CD28 was measured by adding dilutions of drp8 to premixed oxidized FITC-drp8 and CD28 in PBS (pH 7.4). […] After 10 min incubation at room temperature, the plate was read using a plate reader (Eex= 485 nm, Eem = 535 nm). In the competition fluorescence polarization assay measuring the binding of drp1, drp7 and drp9 to CD28, the fluorescence anisotropies were recorded in the same way as described above. […]

[3] = tested on: CTLA-4; assay: Fluorescence polarization binding assay to CTLA-4; settings: FP assay, oxidized fluorescein-labeled peptide; Fig. S23
Procedure: as §1, §2, §3, §4, §5

[4] = target: T1, CD28; assay: Competition fluorescence polarization assay with oxidized FITC-drp8 as probe; type: binding; settings: FP competition with oxidized FITC-drp8; negative control
Procedure: as §1, §2, §3, §4, §5

T1 sequence (P10747 19-220): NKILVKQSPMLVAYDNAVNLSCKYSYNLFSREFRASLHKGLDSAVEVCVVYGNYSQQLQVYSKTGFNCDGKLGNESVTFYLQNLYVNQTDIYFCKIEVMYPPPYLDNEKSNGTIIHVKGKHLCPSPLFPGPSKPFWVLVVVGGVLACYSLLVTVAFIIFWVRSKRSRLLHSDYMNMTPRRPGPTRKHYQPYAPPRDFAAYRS

CC(C)C[C@@H]1NC(=O)CNC(=O)[C@H](CCC(=O)O)NC(=O)[C@@H]2CSSC[C@H](NC(=O)[C@H](CC(N)=O)NC(=O)[C@H](CC(N)=O)NC1=O)C(=O)N[C@@H](Cc1c[nH]c3ccccc13)C(=O)N[C@@H](Cc1ccccc1)C(=O)N[C@@H](C(C)C)C(=O)N[C@@H](CCC(=O)O)C(=O)N[C@@H](C)C(=O)N[C@H]1CSSC[C@H](NC(=O)CNC(=O)CCNC(=S)Nc3ccc4c(c3)C(=O)OC43c4ccc(O)cc4Oc4cc(O)ccc43)C(=O)N3CCC[C@H]3C(=O)N3CCC[C@H]3C(=O)N[C@@H](CSSC[C@@H](C(N)=O)NC(=O)[C@@H]3CCCN3C(=O)[C@@H]3CCCN3C1=O)C(=O)N1CCC[C@H]1C(=O)N[C@@H](CCCNC(=N)N)C(=O)N[C@@H](CCC(=O)O)C(=O)N[C@@H](Cc1c[nH]cn1)C(=O)N[C@@H](CCC(=O)O)C(=O)N[C@@H](CC(C)C)C(=O)N[C@@H](C(C)C)C(=O)N[C@@H](C)C(=O)N[C@@H](C(C)C)C(=O)N1CCC[C@H]1C(=O)N2 [FITC-drp8] ({FITC-βAla}-GCPPCPREHELVAVPCEGLNNCWFVEACPPC-NH2; disulfide 2-28, 5-31, 16-22)
binding to CD28 on the cell surface (in words) [1]: can specifically bind with CD28 on the live cell surface

CC(C)C[C@@H]1NC(=O)CNC(=O)[C@H](CCC(=O)O)NC(=O)[C@@H]2CSSC[C@H](NC(=O)[C@H](CC(N)=O)NC(=O)[C@H](CC(N)=O)NC1=O)C(=O)N[C@@H](Cc1c[nH]c3ccccc13)C(=O)N[C@@H](Cc1ccccc1)C(=O)N[C@@H](C(C)C)C(=O)N[C@@H](CCC(=O)O)C(=O)N[C@@H](C)C(=O)N[C@H]1CSSC[C@H](NC(=O)CN)C(=O)N3CCC[C@H]3C(=O)N3CCC[C@H]3C(=O)N[C@@H](CSSC[C@@H](C(N)=O)NC(=O)[C@@H]3CCCN3C(=O)[C@@H]3CCCN3C1=O)C(=O)N1CCC[C@H]1C(=O)N[C@@H](CCCNC(=N)N)C(=O)N[C@@H](CCC(=O)O)C(=O)N[C@@H](Cc1c[nH]cn1)C(=O)N[C@@H](CCC(=O)O)C(=O)N[C@@H](CC(C)C)C(=O)N[C@@H](C(C)C)C(=O)N[C@@H](C)C(=O)N[C@@H](C(C)C)C(=O)N1CCC[C@H]1C(=O)N2 [drp8] (H-GCPPCPREHELVAVPCEGLNNCWFVEACPPC-NH2; disulfide 2-28, 5-31, 16-22)
competition with CD80 for CD28 (in words) [2]: capable of blocking the CD80 and CD28 interaction
binding affinity to CTLA4 (in words) [3]: negligible binding affinity

H-CPPCHGRPTCDSFTNCWELLTCPPC-NH2 (also: bicyclic or more (positions not given here)) [drp1, template and negative control for CD28]
binding to CD28 in competition assay (in words) [4]: negligibly binds with CD28
